Series [1] relates to Escherichia coli (E.coli). The series can be described thus: Antimicrobial activity of a METAC solution (optical density OD600). The format is cell-based.
The conditions of series [2]: at 20 °C; Flask method; cited from earlier work.
For series [3] the following is noted: at 20 °C; Column elution; cited from earlier work.

The values that follow come from EP4186364A1, “ANTIMICROBIAL TREATMENT OF SUBSTRATES” (Livinguard AG, priority 2021, dated 2023).

Structures are written as SMILES. In brackets after ≈: the same amount, converted by molar mass. Where two headings read alike, the source gives them in different places.

Turning to `C=C(C)C(=O)OCC[N+](C)(C)C.[Cl-]` [METAC, [2-(methacryloyloxy)ethyl]trimethylammonium chloride], the “METAC required to stop E.coli growth” value in series [1] (METAC in solution, OD600, Fig. 8b) was 40 mg/mL. The antimicrobial activity result in series [1] (METAC monomer as such, not bound to a substrate) was “low antimicrobial activity”.
Take `Cc1cc(C)c(C(=O)P(=O)(c2ccccc2)c2ccccc2)c(C)c1` [TPO, diphenyl(2,4,6-trimethylbenzoyl)phosphine oxide]: the water solubility in series [2] is 3.3 mg/L (≈ 9.47 µM); in series [3] it was 11.9 mg/L (≈ 34.2 µM).
